Format in all cases: cell-based, Trypanosoma brucei brucei
Test [1] has as its system T1, FT1–3 (TbFT1–3).
T1 construct: native transporters in intact bloodstream-form trypanosomes; 12 predicted transmembrane helices; uptake assigned by RNAi knockdown of all three
The test can be described thus: inhibition of [3H]folate uptake, whole cells. The conditions noted are these: 2.0 μM folate ([S] ≅ Km); pH 7.3; read-out: IC50 against folate. From the text:
inhibition of [3H]folate uptake, whole cells on FT1–3 (TbFT1–3)

For test [2], the system named is T1, FT1–3 (TbFT1–3). Description: inhibition of [3H]folate uptake, whole cells, Lineweaver-Burk / global fit. The conditions noted are these: competitive with folate; MTX 0, 0.5, 1 μM; pH 7.3.
For test [3], the system named is T1, FT1–3 (TbFT1–3). The test can be described thus: [3H]MTX uptake, whole cells. The conditions noted are these: transport, 23 °C, pH 7.3; labelled compound.
The subject of test [4] is T1, FT1–3 (TbFT1–3). The test can be described thus: [3H]folic acid uptake, whole cells. The conditions noted are these: transport, 23 °C, pH 7.3; labelled compound. From the text: [3H]folic acid uptake, whole cells on FT1–3 (TbFT1–3) | Uptake rates for folate obeyed simple Michaelis-Menten kinetics (Fig. 2D) yielding a Km of […]
Test [5] concerns T1, FT1–3 (TbFT1–3). The test can be described thus: inhibition of [3H]MTX uptake, whole cells, Lineweaver-Burk / global fit. The conditions noted are these: competitive with MTX; folate 0, 0.5, 1 μM; pH 7.3.
The test system of test [6] is T1, FT1–3 (TbFT1–3). The test can be described thus: inhibition of [3H]MTX uptake, whole cells. The conditions noted are these: 13 μM MTX ([S] ≅ Km); pH 7.3; read-out: IC50 against MTX. From the text: inhibition of [3H]MTX uptake, whole cells on FT1–3 (TbFT1–3)

Molecules are shown by their SMILES.

By IC50 is commonly meant the concentration that inhibits the measured activity by half. Regarding `Cc1nc2ccc(CN(C)c3ccc(C(=O)N[C@@H](CCC(=O)O)C(=O)O)s3)cc2c(=O)[nH]1` [raltitrexed], the IC50 in the test with FT1–3 (TbFT1–3) [1] is 1.8 ± 0.4 µM.
The same measure, in the same setting: then `Nc1nc(=O)c2c(CCc3ccc(C(=O)N[C@@H](CCC(=O)O)C(=O)O)cc3)c[nH]c2[nH]1` [pemetrexed], with 3.2 ± 0.3 µM.
Still for that read-out and setting: for `CN1c2c(nc(N)[nH]c2=O)NC[C@@H]1CNc1ccc(C(=O)N[C@@H](CCC(=O)O)C(=O)O)cc1` [5-methyl-THF] the value was 6.3 ± 1 µM; for `Nc1ccc(C(=O)N[C@@H](CCC(=O)O)C(=O)O)cc1` [pABA-Glu], 30.8 ± 3.7 µM.
What is called Ki is the dissociation constant of the complex between target and ligand, obtained from inhibition or displacement. As a reminder, the Km is the concentration of substrate that gives half-maximal velocity. With `CN(Cc1cnc2nc(N)nc(N)c2n1)c1ccc(C(=O)N[C@@H](CCC(=O)O)C(=O)O)cc1` [methotrexate], the IC50 with FT1–3 (TbFT1–3) [1] is 3.4 ± 0.4 µM. The compound also came in with a Ki in the test with FT1–3 (TbFT1–3) [2] of 0.48 ± 0.07 µM. Also, in the test with FT1–3 (TbFT1–3) [3], the Michaelis constant (Km) turned out to be 18.4 ± 2.2 µM.
As to `Nc1nc2ncc(CNc3ccc(C(=O)N[C@@H](CCC(=O)O)C(=O)O)cc3)nc2c(=O)[nH]1` [folate], in the test with FT1–3 (TbFT1–3) [4], the Km worked out at 2.04 ± 0.53 µM. The same compound came in with a Ki in the test with FT1–3 (TbFT1–3) [5] of 0.94 ± 0.21 µM. In addition, in the test on FT1–3 (TbFT1–3) [6], the IC50 is 1.9 ± 0.4 µM.

The values above are taken from paper PMC5114424, “The Role of Folate Transport in Antifolate Drug Action in Trypanosoma brucei” (The Journal of Biological Chemistry, 2016).
